Active and inactive are the calls of the source. No cut-off for these calls is given here.

One may read the IC50 as the concentration needed to halve the response being measured. By inhibition is commonly meant the relative decrease from the control value, in per cent.

For one assay, the system named is Calf thymus DNA. The experiment in a line: Inhibition of calf thymus DNA topoisomerase 2 assessed as DNA cleavage after 30 mins by agarose gel electrophoresis. It is filed as nucleic-acid assay, Bos taurus.
The subject of a further assay is Escherichia coli. The experiment in a line: Induction of DNA intercalation in relaxed pBR322 DNA assessed as conversion of relaxed DNA to negatively supercoiled DNA by measuring topoisomerase 1-mediated DNA relaxation measured up to 25 uM after 15 mins by agarose gel electrophoresis.
The target in assay [1] is T1, DNA topoisomerase 2-alpha (Homo sapiens, UniProt P11388). The experiment in a line: Inhibition of recombinant human DNA topoisomerase 2alpha expressed in topoisomerase1 deficient Saccharomyces cerevisiae JEL1 assessed as inhibition of DNA scission activity at 25 uM after 30 mins by agarose gel electrophoresis.
T1 sequence (P11388 whole entry): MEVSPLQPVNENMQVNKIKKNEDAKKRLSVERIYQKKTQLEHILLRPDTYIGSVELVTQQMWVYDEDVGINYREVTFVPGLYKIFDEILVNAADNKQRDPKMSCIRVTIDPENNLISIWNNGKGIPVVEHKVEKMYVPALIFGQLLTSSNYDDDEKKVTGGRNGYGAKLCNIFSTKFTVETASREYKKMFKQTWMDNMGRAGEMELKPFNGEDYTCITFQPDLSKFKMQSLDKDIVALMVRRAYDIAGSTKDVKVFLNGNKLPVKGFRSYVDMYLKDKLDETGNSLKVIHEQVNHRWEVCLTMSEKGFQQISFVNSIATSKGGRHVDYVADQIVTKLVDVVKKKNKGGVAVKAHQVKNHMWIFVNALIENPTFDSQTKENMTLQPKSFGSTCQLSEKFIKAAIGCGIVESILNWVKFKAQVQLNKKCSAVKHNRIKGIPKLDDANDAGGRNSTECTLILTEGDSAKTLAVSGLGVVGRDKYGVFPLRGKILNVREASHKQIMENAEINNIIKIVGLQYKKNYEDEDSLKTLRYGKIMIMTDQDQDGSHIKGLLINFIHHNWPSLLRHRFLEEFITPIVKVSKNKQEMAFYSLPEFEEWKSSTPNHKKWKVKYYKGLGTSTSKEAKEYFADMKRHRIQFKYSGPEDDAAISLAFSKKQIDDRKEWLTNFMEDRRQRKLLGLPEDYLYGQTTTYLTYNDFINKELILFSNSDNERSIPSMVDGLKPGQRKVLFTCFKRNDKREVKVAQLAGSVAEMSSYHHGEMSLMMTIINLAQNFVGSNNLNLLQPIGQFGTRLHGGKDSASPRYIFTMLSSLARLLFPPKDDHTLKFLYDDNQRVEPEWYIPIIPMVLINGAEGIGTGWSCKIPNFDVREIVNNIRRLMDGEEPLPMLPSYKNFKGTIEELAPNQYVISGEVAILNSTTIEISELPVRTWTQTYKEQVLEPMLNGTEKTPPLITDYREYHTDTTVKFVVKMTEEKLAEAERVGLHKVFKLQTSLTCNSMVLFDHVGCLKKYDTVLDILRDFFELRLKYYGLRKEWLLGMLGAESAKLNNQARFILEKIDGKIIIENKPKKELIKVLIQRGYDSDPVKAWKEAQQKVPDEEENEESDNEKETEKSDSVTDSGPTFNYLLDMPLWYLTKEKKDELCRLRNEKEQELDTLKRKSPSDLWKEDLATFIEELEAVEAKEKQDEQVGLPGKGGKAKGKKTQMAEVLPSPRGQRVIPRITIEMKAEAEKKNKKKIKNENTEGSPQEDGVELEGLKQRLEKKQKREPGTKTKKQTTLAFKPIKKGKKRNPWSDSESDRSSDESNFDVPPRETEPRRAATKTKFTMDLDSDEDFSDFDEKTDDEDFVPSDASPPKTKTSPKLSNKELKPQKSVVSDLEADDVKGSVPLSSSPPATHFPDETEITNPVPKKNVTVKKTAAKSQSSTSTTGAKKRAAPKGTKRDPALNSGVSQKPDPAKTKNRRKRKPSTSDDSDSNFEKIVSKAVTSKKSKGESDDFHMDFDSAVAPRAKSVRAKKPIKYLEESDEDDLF
For assay [2], the target named is T1, DNA topoisomerase 2-alpha. The experiment in a line: Inhibition of recombinant human DNA topoisomerase 2alpha binding to supercoiled pBR322 DNA expressed in topoisomerase1 deficient Saccharomyces cerevisiae JEL1 at 25 uM after 6 mins by electrophoretic mobility shift assay. In general terms: Mobility shift assays separate free from complexed probe on a gel.

In assay [3] the target is T1, DNA topoisomerase 2-alpha. Description: Activity at recombinant human DNA topoisomerase 2alpha expressed in topoisomerase1 deficient Saccharomyces cerevisiae JEL1 assessed as topoisomerase 2alpha-mediated supercoiled pBR322 DNA cleavage up to 200 uM after 15 mins by agarose gel electrophoresis.
Assay [4] addresses T1, DNA topoisomerase 2-alpha. The experiment in a line: Inhibition of recombinant human DNA topoisomerase 2alpha expressed in topoisomerase1 deficient Saccharomyces cerevisiae JEL1 assessed as inhibition of DNA scission activity after 30 mins by agarose gel electrophoresis.
The target in assay [5] is T1, DNA topoisomerase 2-alpha. The experiment in a line: Inhibition of recombinant human DNA topoisomerase 2alpha expressed in topoisomerase1 deficient Saccharomyces cerevisiae JEL1 using kinetoplast DNA as substrate assessed as decantenated kDNA minicircles at 200 to 1000 uM after 15 mins by agarose gel electrophoresis.
The target of assay [6] is T1, DNA topoisomerase 2-alpha. Description: Induction of recombinant human DNA topoisomerase 2alpha binding to supercoiled pBR322 DNA expressed in topoisomerase1 deficient Saccharomyces cerevisiae JEL1 at 25 uM after 6 mins by electrophoretic mobility shift assay.

In the case of `Cc1c2ccncc2c(C)c2c1[nH]c1ccccc12` [ELLIPTECINE], the IC50 with Calf thymus DNA is more than 200 µM.
As to `Cc1c2cnccc2cc2c1c1ccccc1n2C`, the result with Escherichia coli was Active. In assay [1], the inhibition was 40%. Also, the inhibition entry in assay [2] was “inactive”. Besides, in assay [3], the result was inactive. In assay [4], the IC50 worked out at 40 µM. Further, in assay [5], the inhibition entry was “Active”.
Regarding `Cc1c2c[n+](C)ccc2cc2c1c1ccccc1n2C`, the outcome with Escherichia coli was Active. For the same compound, the inhibition in assay [1] was found to be 80%. Besides, the inhibition result in assay [2] is “inactive”. In assay [6], the Activity stood at 50%. For the same compound, the result in assay [3] was inactive. For the same compound, the IC50 in assay [4] amounted to 5 µM. In addition, the inhibition entry in assay [5] was “Active”.
